# Calls of active or inactive are those of the source. The rule behind the calls is not given here.
# What was measured:
# Vero = test: Cytotoxicity against african green monkey Vero cells at 10 ug/ml after 48 hrs by Neutral Red dye assay; type: cell-based; details: chlorocebus sabaeus
# Candida albicans = test: Antimicrobial activity against Candida albicans ATCC 90028 by Alamar blue method; type: functional, organism-based
# Nakaseomyces glabratus = test: Antimicrobial activity against Candida glabrata by Alamar blue method; type: functional, organism-based
# Cryptococcus neoformans = test: Antimicrobial activity against Cryptococcus neoformans ATCC 90113 by Alamar blue method; type: functional, organism-based
# Staphylococcus aureus [1] = test: Antimicrobial activity against Staphylococcus aureus ATCC 29213 by Alamar blue method; type: functional, organism-based
# [2] = test system: Mycobacterium intracellulare; test: Antimicrobial activity against Mycobacterium intracellulare ATCC 23068 by Alamar blue method; type: functional, organism-based
# Staphylococcus aureus [3] = test: Antimicrobial activity against methicillin-resistant Staphylococcus aureus ATCC 33591 by Alamar blue method; type: functional, organism-based
# Pichia kudriavzevii = test: Antimicrobial activity against Candida krusei ATCC 6258 by Alamar blue method; type: functional, organism-based
# Aspergillus fumigatus = test: Antimicrobial activity against Aspergillus fumigatus ATCC 204305 by Alamar blue method; type: functional, organism-based
# [4] = Staphylococcus aureus, ATCC 29213
# [5] = Staphylococcus aureus, ATCC 29213, read-out: IC50
Structure (SMILES),Activity (Vero),IC50 (Candida albicans),MFC (Candida albicans),MIC (Candida albicans),IC50 (Nakaseomyces glabratus),MFC (Nakaseomyces glabratus),MIC (Nakaseomyces glabratus),MFC (Cryptococcus neoformans),MIC (Cryptococcus neoformans),IC50 [2],MBC [2],MIC [2],IC50 (Staphylococcus aureus [3]),MBC (Staphylococcus aureus [3]),MIC (Staphylococcus aureus [3]),IC50 (Pichia kudriavzevii),MFC (Pichia kudriavzevii),MIC (Pichia kudriavzevii),IC50 (Aspergillus fumigatus),MIC (Aspergillus fumigatus),also measured
N#Cc1cccc(CSc2cc3ccccc3[n+](CCCCCC3CCCCC3)c2)c1.[I-],Non-toxic,4.3 µg/mL,20 µg/mL,10 µg/mL,4.7 µg/mL,10 µg/mL,10 µg/mL,5 µg/mL,2.5 µg/mL,4.8 µg/mL,10 µg/mL,5 µg/mL,0.72 µg/mL,5 µg/mL,1.3 µg/mL,1.1 µg/mL,2.5 µg/mL,2.5 µg/mL,8.6 µg/mL,20 µg/mL,IC50 (Cryptococcus neoformans): 1.1 µg/mL; MBC (Staphylococcus aureus [1]; [4]): 2.5 µg/mL; MIC (Staphylococcus aureus [1]; [4]): 1.3 µg/mL; IC50 (Staphylococcus aureus [1]; [5]): 0.69 µg/mL; MFC (Aspergillus fumigatus): 20 µg/mL
COc1cccc(CSc2cc3ccccc3[n+](CCCCCC3CCCCC3)c2)c1.[I-],Non-toxic,4.8 µg/mL,10 µg/mL,10 µg/mL,9.7 µg/mL,20 µg/mL,20 µg/mL,2.5 µg/mL,0.63 µg/mL,3.7 µg/mL,5 µg/mL,5 µg/mL,0.33 µg/mL,1.3 µg/mL,0.63 µg/mL,0.88 µg/mL,2.5 µg/mL,2.5 µg/mL,10.9 µg/mL,20 µg/mL,IC50 (Cryptococcus neoformans): 0.35 µg/mL; MBC (Staphylococcus aureus [1]; [4]): 1.3 µg/mL; MIC (Staphylococcus aureus [1]; [4]): 0.63 µg/mL; IC50 (Staphylococcus aureus [1]; [5]): 0.28 µg/mL; MFC (Aspergillus fumigatus): > 20 µg/mL
Clc1cc(Cl)cc(CSc2cc3ccccc3[n+](CCCCCC3CCCCC3)c2)c1.[I-],Non-toxic,2.8 µg/mL,5 µg/mL,5 µg/mL,> 20 µg/mL,> 20 µg/mL,> 20 µg/mL,1.3 µg/mL,1.3 µg/mL,3.1 µg/mL,5 µg/mL,5 µg/mL,1.3 µg/mL,10 µg/mL,2.5 µg/mL,17 µg/mL,> 20 µg/mL,> 20 µg/mL,> 20 µg/mL,> 20 µg/mL,IC50 (Cryptococcus neoformans): 0.63 µg/mL; IC50 (Staphylococcus aureus [1]): Not Active; MBC (Staphylococcus aureus [1]): inactive; MIC (Staphylococcus aureus [1]): inactive; MFC (Aspergillus fumigatus): > 20 µg/mL
[I-].c1ccc(CSc2cc3ccccc3[n+](CCCCCC3CCCCC3)c2)cc1,Non-toxic,1.6 µg/mL,5 µg/mL,5 µg/mL,2.9 µg/mL,5 µg/mL,5 µg/mL,0.63 µg/mL,0.31 µg/mL,4 µg/mL,20 µg/mL,5 µg/mL,0.33 µg/mL,1.3 µg/mL,0.63 µg/mL,0.71 µg/mL,1.3 µg/mL,1.3 µg/mL,5.7 µg/mL,10 µg/mL,MBC (Staphylococcus aureus [1]; [4]): 10 µg/mL; MIC (Staphylococcus aureus [1]; [4]): 0.31 µg/mL; IC50 (Staphylococcus aureus [1]; [5]): 0.23 µg/mL; MFC (Aspergillus fumigatus): 20 µg/mL
Fc1ccc(CSc2cc3ccccc3[n+](CCCCCC3CCCCC3)c2)cc1.[I-],Non-toxic,1.9 µg/mL,5 µg/mL,5 µg/mL,1.3 µg/mL,2.5 µg/mL,2.5 µg/mL,0.63 µg/mL,0.63 µg/mL,6.9 µg/mL,10 µg/mL,10 µg/mL,0.34 µg/mL,2.5 µg/mL,0.63 µg/mL,0.14 µg/mL,0.63 µg/mL,0.63 µg/mL,5.2 µg/mL,10 µg/mL,MBC (Staphylococcus aureus [1]; [4]): 2.5 µg/mL; MIC (Staphylococcus aureus [1]; [4]): 0.63 µg/mL; IC50 (Staphylococcus aureus [1]; [5]): 0.34 µg/mL; MFC (Aspergillus fumigatus): 10 µg/mL
Cc1ccccc1CSc1cc2ccccc2[n+](CCCCCC2CCCCC2)c1.[I-],Non-toxic,1.4 µg/mL,–,2.5 µg/mL,2.8 µg/mL,5 µg/mL,5 µg/mL,–,0.63 µg/mL,6.7 µg/mL,10 µg/mL,10 µg/mL,0.73 µg/mL,2.5 µg/mL,1.3 µg/mL,0.84 µg/mL,2.5 µg/mL,2.5 µg/mL,4.1 µg/mL,10 µg/mL,IC50 (Cryptococcus neoformans): 0.39 µg/mL; MBC (Staphylococcus aureus [1]; [4]): 2.5 µg/mL; MIC (Staphylococcus aureus [1]; [4]): 0.63 µg/mL; IC50 (Staphylococcus aureus [1]; [5]): 0.4 µg/mL
Brc1ccccc1CSc1cc2ccccc2[n+](CCCCCC2CCCCC2)c1.[I-],Non-toxic,4 µg/mL,10 µg/mL,10 µg/mL,3.4 µg/mL,10 µg/mL,10 µg/mL,2.5 µg/mL,1.3 µg/mL,3.5 µg/mL,5 µg/mL,5 µg/mL,0.41 µg/mL,1.3 µg/mL,0.63 µg/mL,0.49 µg/mL,1.3 µg/mL,1.3 µg/mL,9.6 µg/mL,20 µg/mL,MBC (Staphylococcus aureus [1]; [4]): 1.3 µg/mL; MIC (Staphylococcus aureus [1]; [4]): 0.63 µg/mL; IC50 (Staphylococcus aureus [1]; [5]): 0.42 µg/mL; MFC (Aspergillus fumigatus): 20 µg/mL
N#Cc1ccc(CSc2cc3ccccc3[n+](CCCCCC3CCCCC3)c2)cc1.[I-],Non-toxic,2.5 µg/mL,10 µg/mL,5 µg/mL,11 µg/mL,20 µg/mL,20 µg/mL,2.5 µg/mL,2.5 µg/mL,> 20 µg/mL,> 20 µg/mL,> 20 µg/mL,2.2 µg/mL,5 µg/mL,5 µg/mL,5.7 µg/mL,10 µg/mL,10 µg/mL,8.6 µg/mL,20 µg/mL,IC50 (Cryptococcus neoformans): 0.81 µg/mL; MBC (Staphylococcus aureus [1]; [4]): 5 µg/mL; MIC (Staphylococcus aureus [1]; [4]): 5 µg/mL; IC50 (Staphylococcus aureus [1]; [5]): 1.8 µg/mL; MFC (Aspergillus fumigatus): 20 µg/mL
Clc1ccccc1CSc1cc2ccccc2[n+](CCCCCC2CCCCC2)c1.[I-],Non-toxic,5.6 µg/mL,20 µg/mL,10 µg/mL,6 µg/mL,10 µg/mL,10 µg/mL,5 µg/mL,2.5 µg/mL,13 µg/mL,20 µg/mL,20 µg/mL,0.74 µg/mL,5 µg/mL,1.3 µg/mL,0.34 µg/mL,2.5 µg/mL,2.5 µg/mL,17 µg/mL,20 µg/mL,IC50 (Cryptococcus neoformans): 1.5 µg/mL; MBC (Staphylococcus aureus [1]; [4]): 5 µg/mL; MIC (Staphylococcus aureus [1]; [4]): 1.3 µg/mL; IC50 (Staphylococcus aureus [1]; [5]): 0.77 µg/mL; MFC (Aspergillus fumigatus): 20 µg/mL
Brc1cccc(CSc2cc3ccccc3[n+](CCCCCC3CCCCC3)c2)c1.[I-],Non-toxic,2.6 µg/mL,5 µg/mL,5 µg/mL,1.4 µg/mL,2.5 µg/mL,2.5 µg/mL,1.3 µg/mL,0.63 µg/mL,3.2 µg/mL,5 µg/mL,5 µg/mL,0.21 µg/mL,0.63 µg/mL,0.31 µg/mL,0.4 µg/mL,0.63 µg/mL,0.63 µg/mL,4.8 µg/mL,10 µg/mL,IC50 (Cryptococcus neoformans): 0.56 µg/mL; MBC (Staphylococcus aureus [1]; [4]): 0.63 µg/mL; MIC (Staphylococcus aureus [1]; [4]): 0.63 µg/mL; IC50 (Staphylococcus aureus [1]; [5]): 0.42 µg/mL; MFC (Aspergillus fumigatus): 10 µg/mL

# Reference: ChEMBL document CHEMBL3085759, “Structure-activity relationship (SAR) and preliminary mode of action studies of 3-substituted benzylthioquinolinium iodide as anti-opportunistic infection agents” (Eur J Med Chem, 2013)
